Test results published in patent US11267825B2 (AICURIS GMBH & CO. KG, priority 2017, dated 2022).

Experiments:
HBV = test: Determination of HBV DNA from the supernatants of HepAD38 cells (anti-HBV activity); assay type: cell-based, hepatitis B virus; settings: Hepatitis B virus, 144 h; HBV DNA in HepAD38 supernatant at day 6; read-out: Cell Activity (EC50)
Method: Determination of HBV DNA from the Supernatants of HepAD38 Cells
The anti-HBV activity was analysed in the stable transfected cell line HepAD38, which has been described to secrete high levels of HBV virion particles (Ladner et al., 1997). In brief, HepAD38 cells were cultured at 37° C. at 5% CO2 and 95% humidity in 200 μl maintenance medium, which was Dulbecco's modified Eagle's medium/Nutrient Mixture F-12 (Gibco, Karlsruhe), 10% fetal bovine serum (PAN Biotech Aidenbach) supplemented with 50 μg/ml penicillin/streptomycin (Gibco, Karlsruhe), 2 mM L-glutamine (PAN Biotech, Aidenbach), 400 μg/ml G418 (AppliChem, Darmstadt) and 0.3 μg/ml tetracycline. Cells were subcultured once a week in a 1:5 ratio, but were usually not passaged more than ten times. For the assay 60,000 cells were seeded in maintenance medium without any tetracycline into each well of a 96-well plate and treated with serial half-log dilutions of test compound. To minimize edge effects the outer 36 wells of the plate were not used but were filled with assay medium. On each assay plate six wells for the virus control (untreated HepAD38 cells) and six wells for the cell control (HepAD38 cells treated with 0.3 μg/ml tetracycline) were allocated, respectively. In addition, one plate set with reference inhibitors like BAY 41-4109, entecavir, and lamivudine instead of screening compounds were prepared in each experiment. In general, experiments were performed thrice in triplicates. At day 6 HBV DNA from 100 μl filtrated cell culture supernatant (AcroPrep Advance 96 Filter Plate, […] Supor membran, PALL GmbH, Dreieich) was automatically purified on the MagNa Pure LC instrument using the MagNA Pure 96 DNA and Viral NA Small Volume Kit (Roche Diagnostics, Mannheim) according to the instructions of the manufacturer. EC50 values were calculated from relative copy numbers of HBV DNA. In brief, 5 μl of the 100 μl eluate containing HBV DNA were subjected to PCR LC480 Probes Master Kit (Roche) together with 1 μM antisense primer […], 0.5 μM sense primer […], 0.3 μM hybprobes […]-FL and LC640-[…]-PH (TIBMolBiol, Berlin) to a final volume of 12.5 μl. The PCR was performed on the Light Cycler 480 real time system (Roche Diagnostics, Mannheim) using the following protocol: Pre-incubation for 1 min at 95° C., amplification: 40 cycles×(10 sec at 95° C., 50 sec at 60° C., 1 sec at 70° C.), cooling for 10 sec at 40° C. Viral load was quantitated against known standards using HBV plasmid DNA of pCH-9/3091 (Nassal et al., 1990, Cell 63: 1357-1363) and the LightCycler 480 SW 1.5 software (Roche Diagnostics, Mannheim) and EC50 values were calculated using non-linear regression with GraphPad Prism 6 (GraphPad Software Inc., La Jolla, USA).

HBV core protein = HBV core protein (UniProt P03146); assay type: biochemical; settings: read-out: Assembly Activity (IC50); BODIPY-FL labelled core protein, assembly started with NaCl, read after 6 min
Sequence of HBV core protein (P03146 whole entry, looked up): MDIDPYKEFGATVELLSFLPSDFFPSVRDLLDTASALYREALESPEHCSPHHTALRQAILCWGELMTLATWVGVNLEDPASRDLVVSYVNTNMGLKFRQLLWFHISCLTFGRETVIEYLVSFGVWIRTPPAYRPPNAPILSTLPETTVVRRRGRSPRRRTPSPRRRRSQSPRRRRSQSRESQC
Method: Biochemical Capsid Assembly Assay
The screening for assembly effector activity was done based on a fluorescence quenching assay published by Zlotnick et al. (2007). The C-terminal truncated core protein containing 149 amino acids of the N-terminal assembly domain was fused to a unique cysteine residue at position 150 and was expressed in E. coli using the pET expression system (Merck Chemicals, Darmstadt). Purification of core dimer protein was performed using a sequence of size exclusion chromatography steps. In brief, the cell pellet from 1 L BL21 (DE3) Rosetta2 culture expressing the coding sequence of core protein cloned NdeI/XhoI into expression plasmid pET21b was treated for 1 h on ice with a native lysis buffer (Qproteome Bacterial Protein Prep Kit; Qiagen, Hilden). After a centrifugation step the supernatant was precipitated during 2 h stirring on ice with 0.23 g/ml of solid ammonium sulfate. Following further centrifugation the resulting pellet was resolved in buffer A (100 mM Tris, pH 7.5; 100 mM NaCl; 2 mM DTT) and was subsequently loaded onto a buffer A equilibrated CaptoCore 700 column (GE HealthCare, Frankfurt). The column flow through containing the assembled HBV capsid was dialyzed against buffer N (50 mM NaHCO3 pH 9.6; 5 mM DTT) before urea was added to a final concentration of 3M to dissociate the capsid into core dimers for 1.5 h on ice. The protein solution was then loaded onto a 1 L Sephacryl S300 column. After elution with buffer N core dimer containing fractions were identified by SDS-PAGE and subsequently pooled and dialyzed against 50 mM HEPES pH 7.5; 5 mM DTT. To improve the assembly capacity of the purified core dimers a second round of assembly and disassembly starting with the addition of 5 M NaCl and including the size exclusion chromatography steps described above was performed. From the last chromatography step core dimer containing fractions were pooled and stored in aliquots at concentrations between 1.5 to 2.0 mg/ml at −80° C.
Immediately before labelling the core protein was reduced by adding freshly prepared DTT in a final concentration of 20 mM. After 40 min incubation on ice storage buffer and DTT was removed using a Sephadex G-25 column (GE HealthCare, Frankfurt) and 50 mM HEPES, pH 7.5. For labelling 1.6 mg/ml core protein was incubated at 4° C. and darkness overnight with BODIPY-FL maleimide (Invitrogen, Karlsruhe) in a final concentration of 1 mM. After labelling the free dye was removed by an additional desalting step using a Sephadex G-25 column. Labelled core dimers were stored in aliquots at 4° C. In the dimeric state the fluorescence signal of the labelled core protein is high and is quenched during the assembly of the core dimers to high molecular capsid structures. The screening assay was performed in black 384 well microtiter plates in a total assay volume of 10 μl using 50 mM HEPES pH 7.5 and 1.0 to 2.0 μM labelled core protein. Each screening compound was added in 8 different concentrations using a 0.5 log-unit serial dilution starting at a final concentration of 100 μM, 31.6 μM or 10 μM. In any case the DMSO concentration over the entire microtiter plate was 0.5%. The assembly reaction was started by the injection of NaCl to a final concentration of […] which induces the assembly process to approximately 25% of the maximal quenched signal. 6 min after starting the reaction the fluorescence signal was measured using a Clariostar plate reader (BMG Labtech, Ortenberg) with an excitation of 477 nm and an emission of 525 nm. As 100% and 0% assembly control HEPES buffer containing 2.5 M and 0 M NaCl was used. Experiments were performed thrice in triplicates. EC50 values were calculated by non-linear regression analysis using the Graph Pad Prism 6 software (GraphPad Software, La Jolla, USA).

Structure (SMILES)	EC50 (HBV) [µM]	IC50 (HBV core protein) [µM]
O=C(c1cc2ccccc2[nH]1)N1CCc2nc(NC[C@@H]3C[C@@H]4CC[C@H]3O4)sc2C1 (racemic) [Example 33, (+/−)-trans-5-(1H-indole-2-carbonyl)-N-{[(1R,2S,4S)-7-oxabicyclo[2.2.1]heptan-2-yl]methyl}-4H,5H,6H,7H-[1,3]thiazolo[5,4-c]pyridin-2-amine]	< 1	< 5
O=C(c1cc2ccccc2[nH]1)N1CCc2nc(NC[C@H]3C[C@@H]4CC[C@H]3O4)sc2C1 (racemic) [Example 34, (+/−)-cis-5-(1H-indole-2-carbonyl)-N-{1[(1R,2R,4S)-7-oxabicyclo[2.2.1]heptan-2-yl]methyl}-4H,5H,6H,7H-[1,3]thiazolo[5,4-c]pyridin-2-amine]	< 1	< 5
O=C(c1cc2ccccc2[nH]1)N1CCc2nc(N[C@H]3COCC[C@@H]3O)sc2C1 (racemic) [Example 339, (±)-3-{[5-(1H-indole-2-carbonyl)-4H,5H,6H,7H-[1,3]thiazolo[5,4-c]pyridin-2-yl]amino}oxan-4-ol]	< 1	5 to 10
CC(O)CNc1nc2c(s1)CN(C(=O)c1cc3ccccc3[nH]1)CC2 (stereo in doubt) [Example 131, (2S)-1-{[5-(1H-indole-2-carbonyl)-4H,5H,6H,7H-[1,3]thiazolo[5,4-c]pyridin-2-yl]amino}propan-2-ol]	< 1	< 5
O=C(c1cc2ccccc2[nH]1)N1CCc2nc(CNCC3CCOC3)sc2C1 (stereo not drawn) [Example 1, {[5-(1H-indole-2-carbonyl)-4H,5H,6H,7H-[1,3]thiazolo[5,4-c]pyridin-2-yl]methyl}[(oxolan-3-yl)methyl]amine]	1 to 10	< 100
O=C(Nc1nc2c(s1)CN(C(=O)c1cc3ccccc3[nH]1)CC2)C1CCOCC1 [Example 2, N-[5-(1H-indole-2-carbonyl)-4H,5H,6H,7H-[1,3]thiazolo[5,4-c]pyridin-2-yl]oxane-4-carboxamide]	< 1	< 5
COCC(=O)Nc1nc2c(s1)CN(C(=O)c1cc3ccccc3[nH]1)CC2 [Example 3, N-[5-(1H-indole-2-carbonyl)-4H,5H,6H,7H-[1,3]thiazolo[5,4-c]pyridin-2-yl]-2-methoxyacetamide]	< 1	< 5
CCOCC(=O)Nc1nc2c(s1)CN(C(=O)c1cc3ccccc3[nH]1)CC2 [Example 4, 2-ethoxy-N-[5-(1H-indole-2-carbonyl)-4H,5H,6H,7H-[1,3]thiazolo[5,4-c]pyridin-2-yl]acetamide]	< 1	< 5
CCOC(=O)N1CCC(Nc2nc3c(s2)CN(C(=O)c2cc4ccccc4[nH]2)CC3)CC1 [Example 5, Ethyl 4-{[5-(1H-indole-2-carbonyl)-4H,5H,6H,7H-[1,3]thiazolo[5,4-c]pyridin-2-yl]amino}piperidine-1-carboxylate]	< 1	5 to 10
O=C(c1cc2ccccc2[nH]1)N1CCc2nc(NS(=O)(=O)C3CC3)sc2C1 [Example 6, N-[5-(1H-indole-2-carbonyl)-4H,5H,6H,7H-[1,3]thiazolo[5,4-c]pyridin-2-yl]cyclopropanesulfonamide]	< 1	< 100
CCc1cc(F)cc2[nH]c(C(=O)N3CCc4nc(N)sc4C3)cc12 [Example 7, 5-(4-ethyl-6-fluoro-1H-indole-2-carbonyl)-4H,5H,6H,7H-[1,3]thiazolo[5,4-c]pyridin-2-amine]	< 1	< 5
CCc1ccc(F)c2[nH]c(C(=O)N3CCc4nc(N)sc4C3)cc12 [Example 8, 5-(4-ethyl-7-fluoro-1H-indole-2-carbonyl)-4H,5H,6H,7H-[1,3]thiazolo[5,4-c]pyridin-2-amine]	< 1	< 5
Nc1nc2c(s1)CN(C(=O)c1cc3c(CO)cccc3[nH]1)CC2 [Example 9, (2-{2-amino-4H,5H,6H,7H-[1,3]thiazolo[5,4-c]pyridine-5-carbonyl}-1H-indol-4-yl)methanol]	1 to 10	5 to 10
CC(O)c1cccc2[nH]c(C(=O)N3CCc4nc(N)sc4C3)cc12 (stereo not drawn) [Example 10, 1-(2-{2-amino-4H,5H,6H,7H-[1,3]thiazolo[5,4-c]pyridine-5-carbonyl}-1H-indol-4-yl)ethan-1-ol]	1 to 10	< 100
O=C(c1cc2ccccc2[nH]1)N1CCc2nc(NC34CC(C3)C4)sc2C1 [Example 431, N-{bicyclo[1.1.1]pentan-1-yl}-5-(1H-indole-2-carbonyl)-4H,5H,6H,7H-[1,3]thiazolo[5,4-c]pyridin-2-amine]	< 1	
N#CC12CC(Nc3nc4c(s3)CN(C(=O)c3cc5ccccc5[nH]3)CC4)(C1)C2 [Example 435, 3-{[5-(1H-indole-2-carbonyl)-4H,5H,6H,7H-[1,3]thiazolo[5,4-c]pyridin-2-yl]amino}bicyclo[1.1.1]pentane-1-carbonitrile]	< 1	
O=C(c1cc2ccccc2[nH]1)N1CCc2nc(NCC(F)(F)C3CC3)sc2C1 [Example 436, N-(2-cyclopropyl-2,2-difluoroethyl)-5-(1H-indole-2-carbonyl)-4H,5H,6H,7H-[1,3]thiazolo[5,4-c]pyridin-2-amine]	< 1	
Cc1c(F)ccc2[nH]c(C(=O)N3CCc4nc(N)sc4C3)cc12 [Example 437, 5-(5-fluoro-4-methyl-1H-indole-2-carbonyl)-4H,5H,6H,7H-[1,3]thiazolo[5,4-c]pyridin-2-amine]	< 1	
O=C(c1cc2ccccc2[nH]1)N1CCc2nc(NCC3(O)CC(F)(F)C3)sc2C1 [Example 440, 3,3-difluoro-1-({[5-(1H-indole-2-carbonyl)-4H,5H,6H,7H-[1,3]thiazolo[5,4-c]pyridin-2-yl]amino}methyl)cyclobutan-1-ol]	< 1	
